{"source": "patent US20070172444A1", "about": "“Hair tonics and method of screening the same” (Shiseido Company, Ltd., priority 2000, published 2007)", "key": {"[1]": {"system": "human hair follicles", "experiment": "Human hair follicle organ culture (hair extension, retention of hair bulb morphology)", "format": "cell-based", "settings": "for extension of hair: 7 days", "method": "Three antibiotics of penicillin, streptomycin and fungizone were added to the Williams E medium (Gibco), and the medium to which 10 ng/ml hydrocortisone, 10 μg/ml insulin, 10 ng/ml sodium pentaselenate and 10 μg/ml transferrin were further added was made the insulin-containing medium, and the medium to which they were not added was made the basal medium, and were used in a human hair follicle organ culture.\n(§1) Using a microtome under a stereoscopic microscope, hair follicles in the growth phase were isolated from a human scalp. The isolated hair follicles were washed in the basal medium followed by the measurement of length, and then immersed in the insulin-containing medium (a 24-well microplate was used; 1 ml per well), and was cultured overnight at 37° C. in an atmospheric condition containing 5% CO2. After measuring the length again, hair follicles of which length extension was 0.25 mm or longer and of which morphology in the growth phase was retained were selected, and were divided in groups of 10 to 12 pieces so that the length extension may become equal. For each group, the medium was changed to one containing test substances, and the culturing was continued under the above gas phase condition.\nThe extension of hair follicles was determined over time by inserting a micrometer into the eyepiece of an inverted microscope. Photographs of the whole hair follicles and hair bulbs were taken by a camera connected to the inverted microscope.\nOn the second day of culturing, the medium was changed to one in which TGF-β2 was added to a final concentration of 50 ng/ml, and the culturing was continued for five days while observing the extension of hair follicles and morphological changes. […] Thus, it was estimated that TGF-β2 has an effect of promoting the regression phase.\nThe method was performed in accordance with the human hair follicle organ culture method. On the second day of culturing, the medium was changed to one in which anti-TGF-β antibody (manufactured by Genzyme) having the effect of neutralizing TGF-β or the control mouse IgG were added to a final concentration of 20 μg/ml or 100 μg/ml, and culturing was continued for 4-7 days while observing the extension and morphological changes of hair follicles.\nThe medium was changed to one in which fetuin (final concentration: 1, 10, 50 μM) or the control bovine serum albumin (final concentration: 50 μM) was added to the basal medium, and culturing was continued for a further 7 days while observing the extension and morphological changes of hair follicles.\nas §1, with “that” for “that the”\nThe extension of hair follicles was determined with time by inserting a micrometer into the eyepiece of an inverted microscope. Photographs of the whole hair follicles and hair bulbs were taken by a camera connected to the inverted microscope.\nCarbobenzoxy-valyl-alanyl-β-methyl-aspar-1-yl-fluoromethane (z-VAD-fmk) is known to inhibit almost all caspases. […] The medium was changed to one in which z-VAD-fmk (final concentration: 1, 10, 100 μM) was dissolved in DMSO or the control DMSO was added to the basal medium, and culturing was continued for further 7 days while observing the extension and morphological changes of hair follicles. […]"}, "[2]": {"system": "precursor caspase-3", "experiment": "Detection of precursor and activated caspase-3 in Pam212 cells cultured with TNF α and CHX", "format": "cell-based, mouse", "settings": "TNF α and CHX added, incubated six hours, antibody detection", "from_the_text": "The precursor caspase-3 was detected in almost all cells, whereas activated caspase-3 was not detected."}, "[3]": {"target": "T1, TGF-β2 (Homo sapiens, UniProt P61812)", "T1 construct": "host or cells: added to the culture medium of human dermal papilla cells", "T1 sequence (P61812 303-414 limits assumed)": "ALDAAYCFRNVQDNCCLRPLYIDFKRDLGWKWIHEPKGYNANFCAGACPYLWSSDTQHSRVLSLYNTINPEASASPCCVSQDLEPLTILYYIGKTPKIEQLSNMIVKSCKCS", "experiment": "Determination of PAI-1 in human dermal papilla cells cultured with TGF-β2", "format": "cell-based", "method": "The inhibition of effect of TGF-β2 can be determined as follows. Utilizing the fact that TGF-β2 induces the production of PAI-1, cells (e.g., dermal papilla cells) are cultured in the coexistence of TGF-β2 and the test substance, PAI-1 in the medium is determined, and to determine whether or not PAI-1 was inhibited as compared to the control.\nThe medium in which 10% bovine fetal serum was added to the DMEM medium to which three antibiotics of penicillin, streptomycin and fungizone had been added was used, and human dermal papilla cells were cultured in a 96-well plate (about 7,500 cells per well). First, dose dependency on TGF-β2 of the increased expression of PAI-1 was examined. At a suitable cell density, the medium was changed to ones containing various concentrations of TGF-β2, and was further cultured for 24 hours. Ten μl of the medium was taken out, and quantitated using a commercially available PAI-1 determination kit (TintElize PAI-1: biopool).\nThen, the present inventors investigated, as described below, whether or not TGF-β2 has the effect of inhibiting the enhanced expression of PAI-1. Phyllodulcin was dissolved in DMSO at concentrations of 0.05-50 μg/ml and used. […] At the end of culturing, the survival of cells was also determined by the Alamar Blue method."}, "[4]": {"system": "human dermal papilla cells", "experiment": "Cell survival by the Alamar Blue method", "format": "cell-based", "settings": "after 24 hours culture; 100% in the case of no addition", "method": "Then, the present inventors investigated, as described below, whether or not TGF-β2 has the effect of inhibiting the enhanced expression of PAI-1. Phyllodulcin was dissolved in DMSO at concentrations of 0.05-50 μg/ml and used. After culturing for 24 hours in a medium containing 1 ng/ml TGF-β2, 10 μl of the medium was used to determine the amount of PAI-1. At the end of culturing, the survival of cells was also determined by the Alamar Blue method.\nThis was performed as described below. Thus, after washing twice in a fresh medium, the medium was changed to one containing 1/10 amount of Alamar Blue (Alamar Bioscience), and was incubated at 37° C. (5% CO2) for four hours. After incubation, absorbance at 595 nm and 570 nm was measured by a microplate reader in order to calculate the Alamar Blue reduction rate for each well, which was divided by the Alamar Blue reduction rate for the negative control in which no phyllodulcin samples were added, and the survival of the cells were calculated."}, "[5]": {"system": "isolated human hair", "experiment": "Extension of isolated human hair", "format": "cell-based", "settings": "phyllodulcin added to isolated human hair, vs control", "method": "The extension of hair when phyllodulcin was added to the isolated human hair was investigated. The result is as shown in a photograph in FIG. 20."}}, "note": "Residues, ends and D or L forms follow the SMILES beside them. *: point of attachment. Cbz = O=C(OCc1ccccc1)*; CH2F = FC*"}
{"molecule": "COC(=O)CC(NC(=O)C(C)NC(=O)C(NC(=O)OCc1ccccc1)C(C)C)C(=O)CF", "note": "(stereo not drawn) [z-VAD-fmk, Carbobenzoxy-valyl-alanyl-β-methyl-aspar-1-yl-fluoromethane] (Cbz-Val-Ala-Asp(OMe)-CH2F; configuration not given here)", "values": [{"measurement": "Ratio of hair follicles in which the morphology of the hair bulb portions was retained", "setting": "[1]; Experiment 2 (day 4), 10 μM, control 12.5%", "result": "37.5% (3/8)"}, {"measurement": "Ratio of hair follicles in which the morphology of the hair bulb portions was retained", "setting": "[1]; Experiment 2 (day 6) as printed, 20 μM, control 20%", "result": "60% (6/10)"}, {"measurement": "extension of hair", "setting": "[1]; z-VAD-fmk 1, 10, 100 μM, vs control DMSO", "result": "significantly extended hair"}, {"measurement": "activation of the precursor caspase-3", "setting": "[2]", "result": "completely inhibit the activation of the precursor caspase-3"}]}
{"molecule": "COc1ccc([C@H]2Cc3cccc(O)c3C(=O)O2)cc1O", "note": "[phyllodulcin]", "values": [{"measurement": "hair extension", "setting": "[1]; 0.6 μg/ml, eighth day of culturing, vs solvent control", "result": "significantly promoted"}, {"measurement": "amount of PAI-1", "setting": "[3]; 1 ng/ml TGF-β2, 24 hours, 100 in the case of no addition, phyllodulcin 0.05-50 μg/ml", "result": 18}, {"measurement": "Alamar Blue reduction rate (%)", "setting": "[4]", "result": 95, "unit": "%"}, {"measurement": "extension of hair", "setting": "[5]", "result": "the hair is extended as compared to the control"}]}
{"molecule": "fetuin", "values": [{"measurement": "extension of hair", "setting": "[1]; fetuin 1, 10, 50 μM, vs control bovine serum albumin 50 μM", "result": "significantly extended hair"}]}
{"molecule": "TGF-β2: transforming growth factor β2", "values": [{"measurement": "regression phase-like morphological changes", "setting": "[1]; TGF-β2 50 ng/ml, sixth day of culturing, vs non-added control", "result": "regression phase-like morphological changes were promoted"}, {"measurement": "expression of PAI-1", "setting": "[3]; various concentrations of TGF-β2, 24 hours", "result": "an increase in PAI-1 in a dose dependent manner"}]}
